Patent US20210254056A1, “IDENTIFICATION AND TARGETED MODULATION OF GENE SIGNALING NETWORKS” (CAMP4 THERAPEUTICS CORPORATION, priority 2017, published 2021)
Like-named read-outs stand apart in the source and are kept apart here.

Test system: hepatocytes
Experiment: RNA-seq of hepatocytes treated with Phase III failure compounds
Conditions: for significant modulation of expression of disease genes: q≤0.05, genes in the value or listed in the block; for B2M expression, RNA-seq result: gene B2M; for B9D2 expression, RNA-seq result: gene B9D2; for BAAT expression, RNA-seq result: gene BAAT; for BBOX1 expression, RNA-seq result: gene BBOX1; for BBS10 expression, RNA-seq result: gene BBS10; for BCHE expression, RNA-seq result: gene BCHE; for BCKDHB expression, RNA-seq result: gene BCKDHB; for BCKDK expression, RNA-seq result: gene BCKDK; for BCO1 expression, RNA-seq result: gene BCO1; for BCR expression, RNA-seq result: gene BCR; for BLNK expression, RNA-seq result: gene BLNK; for BLOC1S3 expression, RNA-seq result: gene BLOC1S3; for BMPR1A expression, RNA-seq result: gene BMPR1A; for BRAF expression, RNA-seq result: gene BRAF; for BSCL2 expression, RNA-seq result: gene BSCL2; for BTD expression, RNA-seq result: gene BTD; for C4A expression, RNA-seq result: gene C4A; for C9 expression, RNA-seq result: gene C9; for C10orf10 expression, RNA-seq result: gene C10orf10; for C10orf11 expression, RNA-seq result: gene C10orf11; for C15orf41 expression, RNA-seq result: gene C15orf41; for CA2 expression, RNA-seq result: gene CA2; for CA5A expression, RNA-seq result: gene CA5A; for CA12 expression, RNA-seq result: gene CA12; for CAV1 expression, RNA-seq result: gene CAV1; for CCND1 expression, RNA-seq result: gene CCND1; for CD46 expression, RNA-seq result: gene CD46; for CD81 expression, RNA-seq result: gene CD81; for CD320 expression, RNA-seq result: gene CD320; for CDAN1 expression, RNA-seq result: gene CDAN1; for CDH1 expression, RNA-seq result: gene CDH1; for CEP19 expression, RNA-seq result: gene CEP19; for CEP83 expression, RNA-seq result: gene CEP83; for CEP164 expression, RNA-seq result: gene CEP164; for CEP290 expression, RNA-seq result: gene CEP290; for CFB expression, RNA-seq result: gene CFB; for CFHR2 expression, RNA-seq result: gene CFHR2; for CHRM3 expression, RNA-seq result: gene CHRM3; for CIDEC expression, RNA-seq result: gene CIDEC; for CLDN1 expression, RNA-seq result: gene CLDN1; for COG1 expression, RNA-seq result: gene COG1
Experimental: RNA-seq was performed to determine the effects of the compounds on hepatocytes.
Significance was determined by the criteria of FPKM≥0.5, a log 2(fold-change)≥1, and a […].

[1] = RNA-seq, Phase III failure compounds, hepatocytes, significance: FPKM≥0.5, log 2(fold-change)≥1, q-value≥0.05 (so in the source)

CN(C)[C@@H]1C(O)=C(C(N)=O)C(=O)[C@@]2(O)C(O)=C3C(=O)c4c(O)c(NC(=O)CN5CCCC5)cc(F)c4C[C@H]3C[C@@H]12 [TP-434 (Eravacycline), Eravacycline]
Number (#) of genes having significantly changed expression: 232
significant modulation of expression of disease genes (RNA-seq, hepatocytes): significantly (q≤0.05) modulate expression
B2M expression, RNA-seq result (hepatocytes): 0.56
B9D2 expression, RNA-seq result (hepatocytes): 0.16
BAAT expression, RNA-seq result (hepatocytes): −0.52
BBOX1 expression, RNA-seq result (hepatocytes): −0.06
BBS10 expression, RNA-seq result (hepatocytes): 0.05
BCHE expression, RNA-seq result (hepatocytes): 0.12
BCKDHB expression, RNA-seq result (hepatocytes): 0.04
BCKDK expression, RNA-seq result (hepatocytes): −0.23
BCO1 expression, RNA-seq result (hepatocytes): −0.13
BCR expression, RNA-seq result (hepatocytes): −0.17
BLNK expression, RNA-seq result (hepatocytes): −0.18
BLOC1S3 expression, RNA-seq result (hepatocytes): 0.32
BMPR1A expression, RNA-seq result (hepatocytes): −0.06
BRAF expression, RNA-seq result (hepatocytes): 0.03
BSCL2 expression, RNA-seq result (hepatocytes): 1.5
BTD expression, RNA-seq result (hepatocytes): −0.25
C4A expression, RNA-seq result (hepatocytes): −0.38
C9 expression, RNA-seq result (hepatocytes): 0.21
C10orf10 expression, RNA-seq result (hepatocytes): −0.02
C10orf11 expression, RNA-seq result (hepatocytes): 0.56
C15orf41 expression, RNA-seq result (hepatocytes): 0.12
CA2 expression, RNA-seq result (hepatocytes): 0.71
CA5A expression, RNA-seq result (hepatocytes): 0.32
CA12 expression, RNA-seq result (hepatocytes): 0.2
CAV1 expression, RNA-seq result (hepatocytes): 0.34
CCND1 expression, RNA-seq result (hepatocytes): −0.7
CD46 expression, RNA-seq result (hepatocytes): 0.23
CD81 expression, RNA-seq result (hepatocytes): 0.17
CD320 expression, RNA-seq result (hepatocytes): 0.3
CDAN1 expression, RNA-seq result (hepatocytes): −0.27
CDH1 expression, RNA-seq result (hepatocytes): −0.59
CEP19 expression, RNA-seq result (hepatocytes): 0.1
CEP83 expression, RNA-seq result (hepatocytes): −0.15
CEP164 expression, RNA-seq result (hepatocytes): −0.21
CEP290 expression, RNA-seq result (hepatocytes): 0.55
CFB expression, RNA-seq result (hepatocytes): 0.23
CFHR2 expression, RNA-seq result (hepatocytes): 0.4
CHRM3 expression, RNA-seq result (hepatocytes): −0.27
CIDEC expression, RNA-seq result (hepatocytes): −0.79
CLDN1 expression, RNA-seq result (hepatocytes): 0.09
COG1 expression, RNA-seq result (hepatocytes): −0.37

C=CC(=O)Nc1cccc(Nc2nc(Nc3ccc(N4CCN(C(C)=O)CC4)cc3OC)ncc2C(F)(F)F)c1 [CO-1686 (Rociletinib), Rociletinib]
Number (#) of genes having significantly changed expression [1]: 391
B2M expression, RNA-seq result (hepatocytes): −0.08
B9D2 expression, RNA-seq result (hepatocytes): −0.29
BAAT expression, RNA-seq result (hepatocytes): 0.22
BBOX1 expression, RNA-seq result (hepatocytes): −0.45
BBS10 expression, RNA-seq result (hepatocytes): −0.28
BCHE expression, RNA-seq result (hepatocytes): −0.79
BCKDHB expression, RNA-seq result (hepatocytes): −0.38
BCKDK expression, RNA-seq result (hepatocytes): −0.45
BCO1 expression, RNA-seq result (hepatocytes): −0.53
BCR expression, RNA-seq result (hepatocytes): −0.26
BLNK expression, RNA-seq result (hepatocytes): 0.75
BLOC1S3 expression, RNA-seq result (hepatocytes): 0.76
BMPR1A expression, RNA-seq result (hepatocytes): 0.07
BRAF expression, RNA-seq result (hepatocytes): 0.32
BSCL2 expression, RNA-seq result (hepatocytes): −0.58
BTD expression, RNA-seq result (hepatocytes): 0.25
C4A expression, RNA-seq result (hepatocytes): 0.16
C9 expression, RNA-seq result (hepatocytes): −0.21
C10orf10 expression, RNA-seq result (hepatocytes): 0.81
C10orf11 expression, RNA-seq result (hepatocytes): 0.1
C15orf41 expression, RNA-seq result (hepatocytes): 0.03
CA2 expression, RNA-seq result (hepatocytes): 0.48
CA5A expression, RNA-seq result (hepatocytes): −0.02
CA12 expression, RNA-seq result (hepatocytes): 0.59
CAV1 expression, RNA-seq result (hepatocytes): −0.47
CCND1 expression, RNA-seq result (hepatocytes): −2.24
CD46 expression, RNA-seq result (hepatocytes): −0.02
CD81 expression, RNA-seq result (hepatocytes): 0.02
CD320 expression, RNA-seq result (hepatocytes): −0.58
CDAN1 expression, RNA-seq result (hepatocytes): 0.02
CDH1 expression, RNA-seq result (hepatocytes): −0.25
CEP19 expression, RNA-seq result (hepatocytes): −0.43
CEP83 expression, RNA-seq result (hepatocytes): −0.13
CEP164 expression, RNA-seq result (hepatocytes): −0.32
CEP290 expression, RNA-seq result (hepatocytes): −0.17
CFB expression, RNA-seq result (hepatocytes): 0.17
CFHR2 expression, RNA-seq result (hepatocytes): −0.16
CHRM3 expression, RNA-seq result (hepatocytes): −0.14
CIDEC expression, RNA-seq result (hepatocytes): 0.24
CLDN1 expression, RNA-seq result (hepatocytes): −0.71
COG1 expression, RNA-seq result (hepatocytes): −0.28

COc1nc(C)cnc1NS(=O)(=O)c1cccnc1-c1ccc(-c2nnco2)cc1 [Zibotentan]
Number (#) of genes having significantly changed expression [1]: 505
significant modulation of expression of disease genes (RNA-seq, hepatocytes): significantly (q≤0.05) modulate expression
B2M expression, RNA-seq result (hepatocytes): −0.49
B9D2 expression, RNA-seq result (hepatocytes): −0.43
BAAT expression, RNA-seq result (hepatocytes): 0.17
BBOX1 expression, RNA-seq result (hepatocytes): −0.45
BBS10 expression, RNA-seq result (hepatocytes): 0.26
BCHE expression, RNA-seq result (hepatocytes): 0.02
BCKDHB expression, RNA-seq result (hepatocytes): −0.16
BCKDK expression, RNA-seq result (hepatocytes): −0.21
BCO1 expression, RNA-seq result (hepatocytes): −0.38
BCR expression, RNA-seq result (hepatocytes): 0.14
BLNK expression, RNA-seq result (hepatocytes): 0.09
BLOC1S3 expression, RNA-seq result (hepatocytes): 0.15
BMPR1A expression, RNA-seq result (hepatocytes): 0.51
BRAF expression, RNA-seq result (hepatocytes): 0.82
BSCL2 expression, RNA-seq result (hepatocytes): −3.20
BTD expression, RNA-seq result (hepatocytes): 0.19
C4A expression, RNA-seq result (hepatocytes): 0.20
C9 expression, RNA-seq result (hepatocytes): −0.13
C10orf10 expression, RNA-seq result (hepatocytes): −0.49
C10orf11 expression, RNA-seq result (hepatocytes): −0.62
C15orf41 expression, RNA-seq result (hepatocytes): 0.50
CA2 expression, RNA-seq result (hepatocytes): −0.44
CA5A expression, RNA-seq result (hepatocytes): 0.23
CA12 expression, RNA-seq result (hepatocytes): 0.06
CAV1 expression, RNA-seq result (hepatocytes): 0.15
CCND1 expression, RNA-seq result (hepatocytes): 0.25
CD46 expression, RNA-seq result (hepatocytes): 0.05
CD81 expression, RNA-seq result (hepatocytes): −0.76
CD320 expression, RNA-seq result (hepatocytes): −0.95
CDAN1 expression, RNA-seq result (hepatocytes): 0.10
CDH1 expression, RNA-seq result (hepatocytes): 0.50
CEP19 expression, RNA-seq result (hepatocytes): −0.43
CEP83 expression, RNA-seq result (hepatocytes): 0.33
CEP164 expression, RNA-seq result (hepatocytes): 0.05
CEP290 expression, RNA-seq result (hepatocytes): 0.01
CFB expression, RNA-seq result (hepatocytes): −0.28
CFHR2 expression, RNA-seq result (hepatocytes): −0.93
CHRM3 expression, RNA-seq result (hepatocytes): 0.20
CIDEC expression, RNA-seq result (hepatocytes): −0.40
CLDN1 expression, RNA-seq result (hepatocytes): 0.16
COG1 expression, RNA-seq result (hepatocytes): 0.25

COc1cc2ncnc(Nc3ccc(F)c(Cl)c3)c2cc1NC(=O)/C=C/CN1CCCCC1 [Dacomitinib (PF299804, PF299), Dacomitinib]
significant modulation of expression of any of the genes analyzed (RNA-seq, p≤0.05, hepatocytes): not observed to significantly modulate expression
